Patent US7915012B2, “Methods for screening for inhibitors of TRPV2 activation” (Korea University Industry and Academic Collaboration …, priority 2008, dated 2011)

Legend:
rTRPV2 = target: T1, rTRPV2 (Rattus norvegicus, UniProt Q9WUD2, A713V/L151P/T158I); assay: Whole-cell voltage-clamp recording in TRPV2 transfected HEK293T cell line; format: cell-based
T1 construct: expressed in transfected cells; host or cells: HEK293T (ATCC CRL-11268)
T1 sequence (Q9WUD2 1-761 L151P/T158I/A713V): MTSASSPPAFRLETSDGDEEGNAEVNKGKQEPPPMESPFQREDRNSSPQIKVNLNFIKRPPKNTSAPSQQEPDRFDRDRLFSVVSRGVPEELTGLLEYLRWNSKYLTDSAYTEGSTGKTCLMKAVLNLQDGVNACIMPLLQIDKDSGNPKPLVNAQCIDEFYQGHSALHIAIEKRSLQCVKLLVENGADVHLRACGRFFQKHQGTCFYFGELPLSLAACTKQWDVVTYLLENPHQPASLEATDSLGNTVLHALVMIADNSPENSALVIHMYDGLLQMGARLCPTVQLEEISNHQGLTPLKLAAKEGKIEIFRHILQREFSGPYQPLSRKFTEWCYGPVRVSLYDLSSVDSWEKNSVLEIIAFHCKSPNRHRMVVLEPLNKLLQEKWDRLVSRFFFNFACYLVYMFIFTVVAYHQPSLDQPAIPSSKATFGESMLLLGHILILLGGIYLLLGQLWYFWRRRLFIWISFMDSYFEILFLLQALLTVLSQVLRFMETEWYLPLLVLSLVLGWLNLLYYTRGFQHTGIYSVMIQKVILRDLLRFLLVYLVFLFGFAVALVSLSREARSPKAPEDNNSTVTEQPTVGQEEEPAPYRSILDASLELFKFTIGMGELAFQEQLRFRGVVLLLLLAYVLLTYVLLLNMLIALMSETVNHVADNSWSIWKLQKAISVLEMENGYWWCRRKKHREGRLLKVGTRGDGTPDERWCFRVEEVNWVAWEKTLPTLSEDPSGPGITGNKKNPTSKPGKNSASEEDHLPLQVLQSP
Protocol: HEK293T cell line (ATCC CRL-1 1268) was transiently transfected with plasmid DNA containing polynucleotide encoding […] (SEQ. ID. NO: 1), rTRPV2 (SEQ. ID. NO: 2), mTRPV3 (SEQ. ID. NO: 3), rTRPV4 (SEQ. ID. NO: 4), mTRPM8 (SEQ. ID. NO: 5) or mTRPA1 (SEQ. ID. NO: 6).
Particularly, the HEK293T cell line was transiently transfected with individual TRP channel plasmid (pcDNA3.1 containing polynucleotide encoding rTRPV1, rTRPV2, mTRPV3, rTRPV4, mTRPM8 or mTRPA1), and 600 ng/well of pCDNA3 (Invitrogen Corp., USA; containing green fluorescent protein (GFP) cDNA) using Fugene6 (Roche Diagnostics, USA) according to manufacturer's instruction. The transformed cells were cultured in DMEM/F12 containing 10% FBS and 1% penicillin/streptomycin in a CO2 incubator for 24 hours. The cells were replated onto poly-L-lysine-coated glass coverslips, followed by further culture for 10-24 hours.
The TRPV2 transfected cell line prepared in Example 1 was treated with 100 μM probenecid (Sigma-Aldrich, USA) and 300 μM 2-APB (2-aminoethoxydiphenyl borate; Cayman Chemical, USA), respectively. Stock solutions were made using water, DMSO or ethanol, and were diluted with test solutions before use.
Whole-cell voltage-clamp recording, one of the patch-clamp techniques, was performed with the transfected cell line of Example <1-1> according to the method of Bandel M, et al. (Neuron 41:849-857, 2004).
Particularly, the extracellular solution (140 mM NaCl, 5 mM KCl, 2 mM CaCl2, 1 mM MgCl2, 10 mM HEPES; titrated to pH 7.4 with NaOH) and the pipette solution (140 mM CsCl, 5 mM EGTA, 10 mM HEPES, 2.0 mM MgATP, 0.2 mM NaGTP; titrated to pH 7.2 with CsOH) were used. The potential was held at −60 mV for 250 ms, voltage-ramp pulsed from −80 mV to +80 mV for […] and returned to −60 mV for 250 ms, which was repeated without intersweep. This experiment was repeated 5 times.
The TRPV2 transfected cell line prepared by the method of Example 1 was treated with 100 μM probenecid, 100 μM probenecid+20 μM ruthenium red (Sigma-Aldrich, USA) and 300 μM 2-APB, respectively. […]

trigeminal neurons [1] = assay: Calcium imaging of cultured trigeminal neurons; format: cell-based, ICR mice
Protocol: Trigeminal ganglia were dissected out of decapitated adult ICR mice in cold PBS and treated with 1.5 mg/ml of collagenase/dispase (Roche Diagnostics, USA) at 37° for 45 min, and then treated with 0.25% trypsin (Invitrogen, USA) for 15 min. The trigeminal neurons prepared thereby were then plated onto poly-L-lysinecoated coverslips in DMEM/F12 containing 10% FBS, 1% penicillin/streptomycin and 5 ng/ml of 2.5S NGF (Invitrogen, USA), followed by culture in a CO2 incubator for 48-72 hours.
Calcium imaging was performed with a confocal microscope (LSM5 Pascal, Carl Zeiss, Germany), and time-lapse images (excitation 488 nm/emission 514 nm) were collected every 3 seconds using Carl Zeiss ratio tool software (Carl Zeiss, Germany).
The trigeminal neurons prepared by the same manner as described in Example 2 were delayed-treated with 100 μM probenecid or 4 kinds of TRP activators: TRPM8 activator menthol 400 μM, TRPA1 activator cinnamaldehyde (MP Biomedicals, USA) 300 μM, TRPV1 activator capsaicin (Sigma-Aldrich, USA) 2 μM and TRPV1-3 activator 2-APB 300 μM.
The trigeminal neurons prepared by the same manner as described in Example 2 were treated with 300 μM 2-APB+100 μM probenecid, 300 μM 2-APB+2 μM capsaicin, 300 μM 2-APB+300 μM cinnamaldehyde+2 μM capsaicin, 300 μM 2-APB +2 μM capsaicin +100 μM probenecid, 300 μM 2-APB +400 μM menthol and 300 μM 2-APB, respectively.

trigeminal neurons [2] = assay: Whole-cell voltage-clamp recording in trigeminal neurons; format: cell-based, ICR mice; conditions: 20 μM ruthenium red + 100 μM probenecid

NCCOB(c1ccccc1)c1ccccc1 [2-APB, 2-aminoethoxydiphenyl borate]
whole cell current (TRPV2 activation) (rTRPV2; 300 μM 2-APB): equal response
neurons sensitive to 2-APB, share of the total neurons (trigeminal neurons [1]; 300 μM 2-APB): 46.8%
neurons with probenecid-induced calcium influx that responded to 2-APB (trigeminal neurons [1]; 300 μM 2-APB, 100 μM probenecid): 59 out of 60

COc1cc(CNC(=O)CCCC/C=C/C(C)C)ccc1O [capsaicin]
share of probenecid-sensitive neurons that responded to capsaicin (trigeminal neurons [1]; 2 μM capsaicin, 100 μM probenecid): 7.7%
share of the 2-APB-sensitive group that responded to capsaicin (trigeminal neurons [1]; 2 μM capsaicin, 300 μM 2-APB): 40.2%

N.N.N.N.N.N.N.N.N.N.N.N.N.N.[Cl-].[Cl-].[Cl-].[Cl-].[Cl-].[Cl-].[O-2].[O-2].[Ru+3].[Ru+3].[Ru+4] [ruthenium red]
inhibition of probenecid induced currents in trigeminal neurons (trigeminal neurons [2]): inhibited
inhibition of probenecid induced current response (rTRPV2; 20 μM ruthenium red + 100 μM probenecid): inhibited
